Laboratory results taken from patent US10829506B2, “Amino- or ammonium-containing sulfonic acid, phosphonic acid and carboxylic acid derivatives and their medical use” (GRI Bio, Inc., priority 2011, dated 2020).

Experiments:
RBL-2H3 cells = experiment: Maximum tolerated concentration (cytotoxicity by lactate dehydrogenase release); assay type: cell-based, rat
Excerpt: A commercially available cytotoxicity test was used (Promega Cytotox-One cat. #67891).
The safety index (SI) of a test compound Is the ratio between the maximum tolerated concentration and the 1C50 and is used as a measure of the relative safety of the test compound.

BALB/cJW mice = experiment: Delayed-type hypersensitivity (DTH) reaction, mouse ear swelling; assay type: in vivo
Experimental: The anti-inflammatory and anti-allergic effects of compound 1a was assessed in a mouse model of skin delayed-type hypersensitivity (DTH) reactions and compared to a vehicle control and to the reference drug dexamethasone. DTH reactions are antigen-specific cell-mediated immune responses, driven primarily by T helper type 1 (Th1) cells, similar to the tuberculin immunization response. The immune reaction induced by an ovalbumin challenge to animals previously sensitized with ovalbumin in Complete Freund's Adjuvant, is characterized by swelling (edema) at the site of challenge, e.g. the mouse ear. Dexamethasone, an anti-inflammatory steroid, reduces cell-mediated immune responses and was employed to validate the responsiveness of the assay to pharmacological treatment.
Female BALB/cJW mice were bred at the University of Lodz, Lodz, Poland and housed in groups of 8 in makrolon cages with a 12 h light-dark cycle. Mice were given free access to food (Agropol S. j., Motycz, Poland) and water.
Group size was n=8 mice unless otherwise stated. Test compound was freshly prepared before administration.
Sensitization: The protein antigen, ovalbumin, was reconstituted in PBS at 4 mg/ml. […] The emulsion was tested by putting a drop of emulsion onto PBS; if the emulsion remained as a light droplet on the PBS, the emulsion was deemed ready. […]
Challenge: On the sixth day after sensitization, DTH was elicited by challenging animals subcutaneously (gauge 30 needle, B. Braun Melsungen, Melsungen, Germany) in the left ears with 10 μL of a 1% suspension of heat-aggregated ovalbumin (HOVA) (100 μg ovalbumin per mouse). […] Ear thickness was measured with a precise spring-loaded caliper (Art. No, 7309, Mltutoyo, Kawasaki, Japan) before challenge, and 24 h after challenge. […]
To account for individual variability, the increase in right ear thickness, before and 24 h after administration of PBS, was subtracted from the HOVA-induced increase in left ear thickness. The increase in ear thickness was calculated by the difference between ear thickness before and 24 h after antigen challenge. […]

BALB/c-mice = experiment: Local lymph node weight and cell count after TDI challenge; assay type: in vivo
Experimental: Directly after sacrifice, the ear draining lymph node (Ln. auricufaris) was prepared and excised. Organ weight was determined by means of an analytical balance (Kern, Balingen, Germany). Single cell suspensions were prepared by means of a glass potter (VWR, Darmstadt, Germany) and cells were counted with a hemocytometer (Neubauer, V W R, Germany).
One of the most undesirable side-effects of corticosteroid administration is immunosuppression, which leads to the inability to effectively address parasitic infection, wound healing and tumor growth. In the current study, the local lymph node reaction after TDI challenge (lymph node weight and cell number) was determined to assess the response of immune organs.

CCCCCCCCCCCCCC[N+](C)(C)CCCS(=O)(=O)[O-] [Compound 1a, 3-(N,N-Dimethylmyristylammonio)-Propanesulfonate]
MTC (maximum tolerated concentration) (RBL-2H3 cells; highest concentration not causing cytotoxicity, LDH release): 100 µM
SI (safety index, ratio MTC/IC50) (RBL-2H3 cells; ratio between maximum tolerated concentration and IC50): 31.3
Inhibition of DTH response relative to that of a high dose of dexamethasone (BALB/cJW mice; 1a oral vs dexamethasone 1 mg/kg): 65%
Inhibition of mouse ear swelling (DTH response) (BALB/cJW mice; oral, 1a 100 mg/kg (loading dose, then maintenance doses), dexamethasone 1.0 mg/kg once daily, 24 h after ovalbumin challenge): 32%
Local lymph node reaction (lymph node weight and cell number) (BALB/c-mice; systemic treatment at 100 mg/kg): did not have any impact
Local lymph node reaction (lymph node weight and cell number) (BALB/c-mice; topical treatment at 2% or 6%): did not have any impact
